The record followed here is patent publication US10828315B2 (Madrigal Pharmaceuticals, Inc., priority 2013, dated 2020).

The conditions of data set [1]: mouse, plasma, 1 h, 10 µM.
In another data set the test system is HER2. Kind of data set: HER2 degradation assay with BT-474 cell line (Example 12, FACS). Type of data set: cell-based, human.
A short description of data set [2]: Mouse plasma stability protocol, up to 1 h (Examples 16-18). The conditions noted are these: for % Remaining (1 h): % Remaining of parent after 1 h incubation in mouse plasma at 37° C. (10 μM); for % Remaining (1 h, 37° C.): mouse plasma.
The conditions of data set [3]: Tissue Distribution Data for SDC-TRAP-0056.
Method: Using the 10 mM stock solutions of the SDC-TRAP molecule and its Hsp90i binding moiety and effector moiety in DMSO, spiking solutions were prepared at 0.025, 0.05, 0.1, 0.5, 1, 5, 10, 50, 100, 250, and 500 μM in DMSO. 5 μL of each spiking solution was added to a 96-deep well plate.
Quality control standards were prepared from 5 μL of 0.1, 1, and 10 μM calibration standard spiking solution added in triplicate into 96-deep well plate and adding 50 μL of matrix (plasma or homogenized tumor).
To prepare test samples, test plasma was diluted as needed using blank plasma.
Tumor samples were pulverized in liquid nitrogen, weighed, and homogenized in PBS at 5× volume to sample weight. 50 μL of unknown plasma or homogenized tumor sample was mixed with 5 μL of DMSO. The samples were extracted by precipitating calibration standards, QC standards, and unknown samples with 200 μL of internal standard solution. The samples were mixed by vortex at room temperature for approximately 1.5 minutes, then centrifuge at 2-8° C. 150 μL of supernatant was collected and 25 μL of water added. Samples were mixed and analyzed by LC-MS/MS.
Samples of plasma, heart and tumor were excised from a euthanized mouse, homogenized in PBS at 5 times tissue weight and diluted in 5 μL DMSO/50 μL sample. Prior to analysis, 55 μL samples and calibration standards were precipitated in 200 μL methanol in 96-well plates. Samples were mixed on a vortex mixer for 1.5 minutes at 1500 rpm at room temperature, then centrifuged at 4400 rpm for 10 minutes at 8° C. 150 μL of each supernatant was transferred to a well of a new 96-well plate, and 25 μL of water was added and mixed with the sample. […] For the analysis of samples from female SCID mice, a gradient of solvent A (water/0.1% formic acid) and B (acetonitrile/0.1% formic acid) was used as in Table 2 below.
Various SDC-TRAP molecules and appropriate controls were administered to mice and after various time points the plasma and tumor concentration of these molecules was determined.

Structures are written as SMILES. “And” between values parts separate entries of the source, which are not always exact repeats. Identical values can stand only once. Like-named read-outs stand apart in the source and are kept apart here.

Regarding `CCc1c2c(nc3ccc(O)cc13)-c1cc3c(c(=O)n1C2)COC(=O)C3(CC)OC(=O)N(C)CCCCN1CCN(Cc2ccc(-n3c(O)nnc3-c3cc(C(C)C)c(O)cc3O)cc2)CC1` (stereo not drawn) [SDC-TRAP-0055, 4,11-diethyl-9-hydroxy-3,14-dioxo-3,4,12,14-tetrahydro-1H-pyrano[3′,4′:6,7]indolizino[1,2-b]quinolin-4-yl (4-(4-(4-(3-(2,4-dihydroxy-5-isopropylphenyl)-5-hydroxy-4H-1,2,4-triazol-4-yl)benzyl)piperazin-1-yl)butyl)(methyl)carbamate], in data set [1], the “% Remaining (1 h)” value is 103% and the “% Remaining (1 h, 37° C.)” value is on record as 103%.
`CCc1c2c(nc3ccc(O)cc13)-c1cc3c(c(=O)n1C2)COC(=O)C3(CC)OC(=O)CN1CCN(c2ccc(-n3c(O)nnc3-c3cc(C(C)C)c(O)cc3O)cc2)CC1` (stereo not drawn) [SDC-TRAP-0056, 4,11-diethyl-9-hydroxy-3,14-dioxo-3,4,12,14-tetrahydro-1H-pyrano[3′,4′:6,7]indolizino[1,2-b]quinolin-4-yl 2-(4-(4-(3-(2,4-dihydroxy-5-isopropylphenyl)-5-hydroxy-4H-1,2,4-triazol-4-yl)phenyl)piperazin-1-yl)acetate]: half-maximal inhibition with HER2 (IC50) required 1270 nM. The “% Remaining (1 h)” value in data set [2] stood at 78.4%. For the same molecule, the “% Remaining (1 h, 37° C.)” value in data set [2] is reported as 78%. The “Plasma Conc.” value is 1220 µM in data set [3] (Time (h) 0.083); 2.06 µM in data set [3] (Time (h) 6); 0.382 µM in data set [3] (Time (h) 12); 0.0343 µM in data set [3] (Time (h) 24); “BQL” in data set [3] (Time (h) 48). Further, the “Tumor Conc.” value in data set [3] (Time (h) 0.083) is on record as 6.40 nmol/g of tissue; in data set [3] (Time (h) 6), 2.65 nmol/g of tissue; in data set [3] (Time (h) 12), 0.746 nmol/g of tissue; in data set [3] (Time (h) 24), “BQL”; in data set [3] (Time (h) 48), “BQL”. The “Tumor/Plasma Ratio” value in data set [3] (Time (h) 0.083) came to 0.00525; in data set [3] (Time (h) 6), 1.28; in data set [3] (Time (h) 12), 1.95.
For `COc1ccc(-c2cnoc2-c2cc(OC)c(OC)c(OC)c2)cc1OC(=O)N1CCN(c2ccc(-n3c(O)nnc3-c3cc(C(C)C)c(O)cc3O)cc2)CC1` [SDC-TRAP-0099, 2-methoxy-5-(5-(3,4,5-trimethoxyphenyl)isoxazol-4-yl)phenyl-4-(4-(3-(2,4-dihydroxy-5-isopropylphenyl)-5-hydroxy-4H-1,2,4-triazol-4-yl)phenyl) piperazine-1-carboxylate], the “% Remaining (1 h)” value in data set [1] was 95.2%.
Same read-out and setting: with `COc1cc(O)c(-c2nnc(C(=O)NC(C)C)n2-c2ccc(CN3CCC(C(=O)Nc4cccc5c4CN(C4CCC(=O)NC4=O)C5=O)CC3)cc2)cc1C(C)C` (stereo not drawn) [SDC-TRAP-0115, N-(2-(2,6-dioxopiperidin-3-yl)-1-oxoisoindolin-4-yl)-1-(4-(3-(2-hydroxy-5-isopropyl-4-methoxyphenyl)-5-(isopropylcarbamoyl)-4H-1,2,4-triazol-4-yl)benzyl)piperidine-4-carboxamide] the figure was 85.9%.
Same read-out and setting: next, `CC(C)c1cc(-c2nnc(O)n2-c2ccc(CN3CCN(C(=O)COC(=O)Nc4cccc5c4CN(C4CCC(=O)NC4=O)C5=O)CC3)cc2)c(O)cc1O` (stereo not drawn) [SDC-TRAP-0121, 2-(4-(4-(3-(2,4-dihydroxy-5-isopropylphenyl)-5-hydroxy-4H-1,2,4-triazol-4-yl)benzyl)piperazin-1-yl)-2-oxoethyl(2-(2,6-dioxopiperidin-3-yl)-1-oxoisoindolin-4-yl)carbamate]: 89.1%; `CCNC(=O)c1nnc(-c2cc(C(C)C)c(O)cc2O)n1-c1ccc(CN2CCC(C(=O)N3CCC(OC(=O)Nc4cccc5c4CN(C4CCC(=O)NC4=O)C5=O)CC3)CC2)cc1` (stereo not drawn) [SDC-TRAP-0123, 1-(1-(4-(3-(2,4-Dihydroxy-5-isopropylphenyl)-5-(ethylcarbamoyl)-4H-1,2,4-triazol-4-yl)benzyl)piperidine-4-carbonyl)piperidin-4-yl (2-(2,6-dioxopiperidin-3-yl)-1-oxoisoindolin-4-yl)carbamate]: 95.6%; `CCNC(=O)c1nnc(-c2cc(C(C)C)c(O)cc2O)n1-c1ccc(CN2CCC(C(=O)N3CCC(COC(=O)Nc4cccc5c4CN(C4CCC(=O)NC4=O)C5=O)CC3)CC2)cc1` (stereo not drawn) [SDC-TRAP-0124, (1-(1-(4-(3-(2,4-Dihydroxy-5-isopropylphenyl)-5-(ethylcarbamoyl)-4H-1,2,4-triazol-4-yl)benzyl)piperidine-4-carbonyl)piperidin-4-yl)methyl (2-(2,6-dioxopiperidin-3-yl)-1-oxoisoindolin-4-yl)carbamate]: 112%.
The same measure, in the same setting: next, `CCNC(=O)c1nnc(-c2cc(C(C)C)c(O)cc2O)n1-c1ccc(Oc2ccc(C(=O)N3CCC(COC(=O)Nc4cccc5c4CN(C4CCC(=O)NC4=O)C5=O)CC3)cc2)cc1` (stereo not drawn) [SDC-TRAP-0125, (1-(4-(4-(3-(2,4-Dihydroxy-5-isopropylphenyl)-5-(ethylcarbamoyl)-4H-1,2,4-triazol-4-yl)phenoxy)benzoyl)piperidin-4-yl)methyl (2-(2,6-dioxopiperidin-3-yl)-1-oxoisoindolin-4-yl)carbamate]: 99.4%.
As for `CCNC(=O)c1nnc(-c2cc(C(C)C)c(O)cc2O)n1-c1ccc(C(=O)N2CCN(C(=O)COC(=O)OC3(CC)C(=O)OCc4c3cc3n(c4=O)Cc4c-3nc3ccc(O)cc3c4CC)CC2)cc1` (stereo not drawn) [SDC-TRAP-0202, 4,11-diethyl-9-hydroxy-3,14-dioxo-3,4,12,14-tetrahydro-1H-pyrano[3′,4′:6,7]indolizino[1,2-b]quinolin-4-yl (2-(4-(4-(3-(2,4-dihydroxy-5-isopropylphenyl)-5-(ethylcarbamoyl)-4H-1,2,4-triazol-4-yl)benzoyl)piperazin-1-yl)-2-oxoethyl) carbonate], in the data set with HER2, the IC50 was more than 5000 nM. Moreover, in data set [2], the “% Remaining (1 h)” value came out at 21.2% and the “% Remaining (1 h, 37° C.)” value worked out at 21.2%.
With `CCNC(=O)c1nnc(-c2cc(C(C)C)c(O)cc2O)n1-c1ccc(Oc2ccc(C(=O)N3CCC(OC(=O)OC4(CC)C(=O)OCc5c4cc4n(c5=O)Cc5c-4nc4ccc(O)cc4c5CC)CC3)cc2)cc1` (stereo not drawn) [SDC-TRAP-0203, 4,11-Diethyl-9-hydroxy-3,14-dioxo-3,4,12,14-tetrahydro-1H-pyrano[3′,4′:6,7]indolizino[1,2-b]quinolin-4-yl (1-(4-(4-(3-(2,4-dihydroxy-5-isopropylphenyl)-5-(ethylcarbamoyl)-4H-1,2,4-triazol-4-yl)phenoxy)benzoyl)piperidin-4-yl) carbonate], half-maximal inhibition in the data set with HER2 (IC50) was put at 446 nM. In addition, the “% Remaining (1 h, 37° C.)” value in data set [2] is recorded as 71.2%.
Molecule `CCNC(=O)c1nnc(-c2cc(C(C)C)c(O)cc2O)n1-c1ccc(OC2CCN(C(=O)CN(C)C(=O)Oc3ccc4nc5c(c(CC)c4c3)Cn3c-5cc4c(c3=O)COC(=O)[C@]4(O)CC)CC2)cc1` [SDC-TRAP-0206, (S)-4,11-diethyl-4-hydroxy-3,14-dioxo-3,4,12,14-tetrahydro-1H-pyrano[3′,4′:6,7]indolizino[1,2-b]quinolin-9-yl (2-(4-(4-(3-(2,4-dihydroxy-5-isopropylphenyl)-5-(ethylcarbamoyl)-4H-1,2,4-triazol-4-yl)phenoxy)piperidin-1-yl)-2-oxoethyl)(methyl)carbamate] yielded an IC50 in the data set on HER2 of 321 nM. Also, in data set [2], the “% Remaining (1 h)” value is 68.6% and the “% Remaining (1 h, 37° C.)” value is reported as 68.6%.
For the molecule `CCNC(=O)c1nnc(-c2cc(C(C)C)c(O)cc2O)n1-c1ccc(OC2CCN(C(=O)[C@@H]3CCCN3C(=O)Oc3ccc4nc5c(c(CC)c4c3)Cn3c-5cc4c(c3=O)COC(=O)[C@]4(O)CC)CC2)cc1` [SDC-TRAP-0209], in the data set with HER2, 1130 nM corresponded to half-maximal inhibition (IC50). Moreover, in data set [2], the “% Remaining (1 h)” value turned out to be 67.1% and the “% Remaining (1 h, 37° C.)” value amounted to 67.1%.
The molecule `CCNC(=O)c1nnc(-c2cc(C(C)C)c(O)cc2O)n1-c1ccc(OC2CCN(C(=O)C3CCN(C(=O)Oc4ccc5nc6c(c(CC)c5c4)Cn4c-6cc5c(c4=O)COC(=O)[C@]5(O)CC)C(C)C3)CC2)cc1` (stereo partly drawn) [SDC-TRAP-0213, (S)-4,11-diethyl-4-hydroxy-3,14-dioxo-3,4,12,14-tetrahydro-1H-pyrano[3′,4′:6,7]indolizino[1,2-b]quinolin-9-yl 4-(4-(4-(3-(2,4-dihydroxy-5-isopropylphenyl)-5-(ethylcarbamoyl)-4H-1,2,4-triazol-4-yl)phenoxy)piperidine-1-carbonyl)-2-methylpiperidine-1-carboxylate] displayed an IC50 in the data set with HER2 of 248 nM. Also, in data set [2], the “% Remaining (1 h)” value came out at 74.7% and the “% Remaining (1 h, 37° C.)” value is recorded as 74.7%.
In the data set with HER2, `CCc1c2c(nc3ccc(OC(=O)N4CCCCC4C(=O)N4CCC(CCn5ccc6cc(-n7c(O)nnc7-c7cc(C(C)C)c(O)cc7O)ccc65)CC4)cc13)-c1cc3c(c(=O)n1C2)COC(=O)[C@]3(O)CC` (stereo partly drawn) [SDC-TRAP-0215, (S)-4,11-diethyl-4-hydroxy-3,14-dioxo-3,4,12,14-tetrahydro-1H-pyrano[3′,4′:6,7]indolizino[1,2-b]quinolin-9-yl 2-(4-(2-(5-(3-(2,4-dihydroxy-5-isopropylphenyl)-5-hydroxy-4H-1,2,4-triazol-4-yl)-1H-indol-1-yl)ethyl)piperidine-1-carbonyl)piperidine-1-carboxylate] registered an IC50 of 2750 nM. Further, in data set [2], the “% Remaining (1 h, 37° C.)” value came to 77.2%.
In the case of `CCc1c2c(nc3ccc(OC(=O)N4CCN(Cc5ccc(-n6c(O)nnc6-c6cc(C(C)C)c(O)cc6O)cc5)CC4C)cc13)-c1cc3c(c(=O)n1C2)COC(=O)C3(O)CC` (stereo not drawn) [SDC-TRAP-0220, 4,11-diethyl-4-hydroxy-3,14-dioxo-3,4,12,14-tetrahydro-1H-pyrano[3′,4′:6,7]indolizino[1,2-b]quinolin-9-yl 4-(4-(3-(2,4-dihydroxy-5-isopropylphenyl)-5-hydroxy-4H-1,2,4-triazol-4-yl)benzyl)-2-methylpiperazine-1-carboxylate], in the data set on HER2, the IC50 was 474 nM and 445 nM. For the same molecule, the “% Remaining (1 h, 37° C.)” value in data set [2] was found to be 78.3%.
